Results: publication PMC10439952, “JT002, a small molecule inhibitor of the NLRP3 inflammasome for the treatment of autoinflammatory disorders” (Scientific Reports, 2023)
pIC50: −log10 of the molar value. Like-named read-outs stand apart in the source and are kept apart here.

Experiments:
TNFα production = TNFα production in human PBMCs stimulated by LPS + ATP; type: cell-based; settings: Human PBMC
Experimental: (§1) Inflammasome activation and whole blood assays were essentially carried out as described earlier. Details can be found in the supplementary information section accompanying this publication. A protocol for blood draws from healthy volunteers and use of the blood in preclinical assays was approved by Western Institutional Review Board, Inc (Puyallup, WA, USA). Informed consent was obtained from each donor prior to the first blood draw.
(§2) Cell viability was determined by addition of an equal volume of CellTiter-Glo® 2.0 reagent (Promega) to the remaining cells/supernatant in each well. Intracellular Caspase-1 activity was measured using the Caspase-Glo® assay (Promega) according to the manufacturer’s instructions. The biochemical capsase-1 assay was conducted at Reaction Biology Corporation (Malvern, USA). Human IL-1β, IL-1α, and TNFα and mouse IL-1β were measured in cell culture supernatants using homogeneous time resolved fluorescence assay kits (HTRF, Cisbio, Codolet, France). Human IL-18 was measured in cell culture supernatants using an ELISA kit (R&D Systems, Minneapolis, MN, USA). Plasma IL-1β concentrations were determined by Quantikine® ELISA (R&D Systems, Minneapolis, MN).
(§3) 4H). MS: m/z 433.1 (M+H+). […]

[1] = tested on: pyroptosis of mouse BMDMs; test: Inhibition of pyroptotic cell death measured by cellular ATP content (CellTiter-Glo viability) in LPS + nigericin stimulated mouse BMDMs; type: cell-based; settings: Mouse BMDM, read-out: Geo Av IC50, Viability (pyroptosis, cellular ATP content)
Experimental: as §2
(§4) 4H). MS: m/z 433.1 (M+H+).
(§5) Inflammasome activation.PBMCs (iXCells Biotechnologies, San Diego, USA) were thawed the day before the assay and seeded in complete medium (RPMI 1640 medium with GlutaMAX, supplemented with an additional 2.5 g/L D-glucose, 10% Fet al Bovine Serum, 100 mM Sodium Pyruvate, 1% Penicillin/Streptomycin, 10 mM HEPES and 0.05 mM β -mercaptoethanol) in polystyrene V-bottom 96-well plates at 5x10^4 cells per well and incubated overnight at 37°C with 5% CO 2. The next day, PBMC media was r eplaced with serum-fr ee media p rior t o the assay. […]

NLRP1 inflammasome = test: IL-1β production in Nlrp3-/- mouse BMDMs after NLRP1 activation (LPS + L18-MDP); type: cell-based; settings: mBMDMs, concentrations up to 10 µM
caspase-1 = target: T1, caspase-1 (Homo sapiens, UniProt P29466); test: Cell-free biochemical caspase-1 assay
T1 construct: Reaction Biology Corporation (assay run there as a service)
T1 sequence (P29466 120-297 limits assumed): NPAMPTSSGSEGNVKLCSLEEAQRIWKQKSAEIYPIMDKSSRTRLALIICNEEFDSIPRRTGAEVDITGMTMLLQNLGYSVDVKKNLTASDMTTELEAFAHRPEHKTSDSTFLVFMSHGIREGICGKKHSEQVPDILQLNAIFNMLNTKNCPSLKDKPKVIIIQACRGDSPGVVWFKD
T1 sequence (P29466 317-404 limits assumed): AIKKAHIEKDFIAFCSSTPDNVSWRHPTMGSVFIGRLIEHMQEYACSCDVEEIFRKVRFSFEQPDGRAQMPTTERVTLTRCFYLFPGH
Experimental: as §2

NLRP3 inflammasome [2] = target: NLRP3 inflammasome (Homo sapiens, UniProt Q96P20); test: Inhibition of IL-1β, IL-18 and IL-1α production in human PBMCs stimulated by LPS + ATP; type: cell-based; set-up: host or cells: human PBMCs; fresh heparinised human whole blood from healthy volunteers; settings: Human PBMC
Experimental: as §1, §2, §4
as §5, with “2.” for “2. The next day, PBMC media was r eplaced with serum-fr ee media p rior t o the assay.”
flagellin, prepared in Opt iMEM and combined with Lipofectamine 2000. […] After priming Nlrp3 -/- mBMDMs with 100 ng/mL of LPS for 3- 5 h, cells were exposed to 100 ng/mL L18- MDP and incubated overnight.At the end of the incubation period of the assays above, plates were briefly centri fuged and hal f of the cell culture supern atant remo ved and either analysed i mmediately or stored at - 80°C for subs equent cytokine […]

NLRP3 inflammasome [3] = target: T2, NLRP3 inflammasome (Mus musculus, UniProt Q8R4B8); test: Inhibition of IL-1β production in mouse PBMCs stimulated by LPS + nigericin; type: cell-based; set-up: host or cells: mouse PBMCs; mouse bone-marrow derived macrophages; mouse whole blood (C57BL/6 in the ex vivo study); settings: Mouse PBMC, read-out: Geo Av IC50, IL-1β
Experimental: as §1, §2, §3

NLRP3 inflammasome [4] = target: T2, NLRP3 inflammasome; test: Inhibition of non-canonical NLRP3 pathway IL-1β production in mouse BMDMs (Pam3CSK4 + transfected LPS); type: cell-based; set-up: host or cells: mouse PBMCs; mouse bone-marrow derived macrophages; mouse whole blood (C57BL/6 in the ex vivo study); settings: Mouse BMDM, read-out: Geo Av IC50, IL-1β
Experimental: as §1, §2, §3

Chain of NLRP3 inflammasome (Homo sapiens, UniProt Q96P20) (Q96P20 whole entry): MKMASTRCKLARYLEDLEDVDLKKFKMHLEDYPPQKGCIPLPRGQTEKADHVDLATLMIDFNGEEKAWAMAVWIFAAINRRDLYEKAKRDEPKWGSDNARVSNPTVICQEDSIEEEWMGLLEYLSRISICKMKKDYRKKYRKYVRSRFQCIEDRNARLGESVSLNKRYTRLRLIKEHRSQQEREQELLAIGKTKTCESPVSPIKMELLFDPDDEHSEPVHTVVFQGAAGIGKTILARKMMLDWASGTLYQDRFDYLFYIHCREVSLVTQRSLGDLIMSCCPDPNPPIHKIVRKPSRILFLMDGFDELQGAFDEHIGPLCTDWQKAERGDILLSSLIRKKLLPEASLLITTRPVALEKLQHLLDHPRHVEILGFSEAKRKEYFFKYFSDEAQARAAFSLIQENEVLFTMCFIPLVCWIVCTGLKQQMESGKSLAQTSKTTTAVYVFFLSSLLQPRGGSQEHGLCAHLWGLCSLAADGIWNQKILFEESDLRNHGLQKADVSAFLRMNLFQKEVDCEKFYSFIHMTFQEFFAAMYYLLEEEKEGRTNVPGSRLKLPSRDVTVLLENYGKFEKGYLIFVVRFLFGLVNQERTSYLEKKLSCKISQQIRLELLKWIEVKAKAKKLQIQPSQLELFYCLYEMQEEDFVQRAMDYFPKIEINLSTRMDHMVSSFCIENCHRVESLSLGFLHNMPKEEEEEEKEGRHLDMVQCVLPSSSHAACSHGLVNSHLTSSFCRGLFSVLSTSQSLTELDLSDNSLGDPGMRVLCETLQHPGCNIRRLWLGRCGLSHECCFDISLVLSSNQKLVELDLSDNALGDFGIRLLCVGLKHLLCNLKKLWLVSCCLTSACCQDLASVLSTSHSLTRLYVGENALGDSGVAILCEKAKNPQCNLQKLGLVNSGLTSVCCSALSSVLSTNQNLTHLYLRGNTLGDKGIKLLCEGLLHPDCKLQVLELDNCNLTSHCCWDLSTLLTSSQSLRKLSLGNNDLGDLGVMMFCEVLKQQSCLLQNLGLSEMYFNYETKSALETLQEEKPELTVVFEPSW
T2 sequence (Q8R4B8 whole entry): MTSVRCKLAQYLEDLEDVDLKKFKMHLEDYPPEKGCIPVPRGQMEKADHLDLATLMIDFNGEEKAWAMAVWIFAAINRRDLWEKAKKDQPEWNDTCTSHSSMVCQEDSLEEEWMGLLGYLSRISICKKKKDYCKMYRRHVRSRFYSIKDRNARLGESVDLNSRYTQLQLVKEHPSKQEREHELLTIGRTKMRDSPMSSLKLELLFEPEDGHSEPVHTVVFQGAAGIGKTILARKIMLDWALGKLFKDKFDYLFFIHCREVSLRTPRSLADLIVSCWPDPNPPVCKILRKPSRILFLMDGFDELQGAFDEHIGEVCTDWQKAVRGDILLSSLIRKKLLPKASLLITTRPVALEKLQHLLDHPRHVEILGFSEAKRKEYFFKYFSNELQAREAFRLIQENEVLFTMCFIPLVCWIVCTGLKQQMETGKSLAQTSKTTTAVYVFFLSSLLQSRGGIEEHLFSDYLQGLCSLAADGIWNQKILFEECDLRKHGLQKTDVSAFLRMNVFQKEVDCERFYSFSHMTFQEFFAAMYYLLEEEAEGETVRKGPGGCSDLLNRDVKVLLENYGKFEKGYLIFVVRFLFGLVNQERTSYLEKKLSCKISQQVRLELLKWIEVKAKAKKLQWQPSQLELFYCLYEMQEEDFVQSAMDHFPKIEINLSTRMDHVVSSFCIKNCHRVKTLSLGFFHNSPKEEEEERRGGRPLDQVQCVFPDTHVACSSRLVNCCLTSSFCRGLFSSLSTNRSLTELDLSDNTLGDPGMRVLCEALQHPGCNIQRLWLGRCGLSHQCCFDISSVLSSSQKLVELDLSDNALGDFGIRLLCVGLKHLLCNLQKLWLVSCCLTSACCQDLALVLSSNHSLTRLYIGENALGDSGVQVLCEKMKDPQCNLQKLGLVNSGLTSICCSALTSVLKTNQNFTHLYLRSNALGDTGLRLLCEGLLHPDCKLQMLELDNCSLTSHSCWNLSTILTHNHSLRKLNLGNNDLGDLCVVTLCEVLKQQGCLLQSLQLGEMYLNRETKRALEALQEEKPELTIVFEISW

pIC50 (TNFα production; read-out: Geo Av IC50, TNFα): < 6.00
pIC50 (NLRP3 inflammasome [2]; read-out: Geo Av IC50, IL-1α): 8.52
pIC50 (NLRP3 inflammasome [2]; read-out: Geo Av IC50, IL-1β): 8.40
pIC50 (NLRP3 inflammasome [2]; read-out: Geo Av IC50, IL-18): 8.40
pIC50 (NLRP3 inflammasome [3]): 7.60
pIC50 (NLRP3 inflammasome [4]): 7.52
Structure (SMILES): CO[C@@H]1COc2c(S(=O)(=O)NC(=O)Nc3c4c(cc5c3CCC5)CCC4)cnn2C1 [JT002]
effect on TNFα production (TNFα production; JT002 concentrations up to 1 µM): no effect
pIC50 [1]: 8.15
inhibition of IL-1β production after NLRP1 activation (NLRP1 inflammasome): no inhibition of IL-1β production
direct inhibition of caspase-1 enzymatic activity (caspase-1): not a direct inhibitor of caspase-1 enzymatic activity
